# What was measured:
# Assay in all cases: General post-emergent herbicidal activity, foliar application
# Type in all cases: in vivo
# [1] = tested on: Zea mays L. (corn); details: 336 h, scored after 14 days, read-out: % Visual Growth Reduction ZEAMX; for plant injury at 35 g/ha: 35 g ai/ha; for plant injury at 70 g/ha: 70 g ai/ha; for plant injury at 140 g/ha: 140 g ai/ha; for plant injury at 280 g/ha: 280 g ai/ha
# Protocol: (§1) A weighed amount, determined by the highest rate to be tested, of each test compound was placed in a 25 mL glass vial and was dissolved in 4 mL of a 97:3 v/v (volume/volume) mixture of acetone and dimethyl sulfoxide to obtain concentrated stock solutions which will be referred to as General Purpose Solvent. […] The concentrated stock solutions obtained were diluted with 20 mL of an aqueous mixture containing water, General Purpose Solvent, isopropyl alcohol, Atplus 411F crop oil concentrate, and Triton X-155 surfactant in a 46:42:12:1.0:0.02 v/v ratio to obtain spray solutions containing the highest application rates. Additional application rates were obtained by serial dilution of 12 mL of the high rate solution into a solution containing 2 mL of 97:3 v/v (volume/volume) mixture of acetone and dimethyl sulfoxide and 10 mL of an aqueous mixture containing water, General Purpose Solvent, isopropyl alcohol, Atplus 411F crop oil concentrate, and Triton X-155 surfactant in a 46:42:12:1.0:0.02 v/v ratio to obtain 1/2×, 1/4×, 1/8× and 1/16× rates of the high rate. […] Control plants were sprayed in the same manner with the solvent blank.
# (§2) The treated plants and control plants were placed in a greenhouse as described above and watered by sub-irrigation to prevent wash-off of the test compounds. After 14 days, the condition of the test plants as compared with that of the untreated plants was determined visually and scored on a scale of 0 to 100 percent where 0 corresponds to no injury and 100 corresponds to complete kill.
# [2] = tested on: Oryza sativa L. (rice); details: scored after 14 days; for plant injury at 35 g/ha / plant injury at 70 g/ha / plant injury at 140 g/ha / plant injury at 280 g/ha: Oryza sativa, 336 h, read-out: % Visual Growth Reduction ORYSA; for plant injury at 70 g/ha: 70 g ai/ha; for plant injury at 140 g/ha: 140 g ai/ha; for plant injury at 280 g/ha: 280 g ai/ha
# Protocol: as §1, §2
# [3] = tested on: Amaranthus retroflexus L. (pigweed, redroot); details: for pest or weed control at 35 g/ha / pest or weed control at 70 g/ha / pest or weed control at 140 g/ha / pest or weed control at 280 g/ha: Amaranthus retroflexus, 336 h, read-out: % Visual Growth Reduction AMARE; for pest or weed control at 35 g/ha: 35 g ai/ha; for pest or weed control at 70 g/ha: 70 g ai/ha; for GR80 Value AMARE: calculated by probit analysis, dose for 80% visual injury, may be extrapolated; for pest or weed control at 280 g/ha: 280 g ai/ha
# Protocol: as §1, §2
# (§3) By applying the well-accepted probit analysis as described by J. Berkson in […], 48, 565 (1953) and by D. Finney in “Probit Analysis” Cambridge University Press (1952), the dose response data gathered as expressed above can be used to calculate GR20, GR50 and GR80 values, which are defined as growth reduction factors that correspond to the effective dose of herbicide required to kill or control 20 percent, 50 percent or 80 percent, respectively, of a target plant. Data not expressed in Table A may have been used to calculate some of the GR80 values in Table B. In some cases, the GR80 values may be extrapolations calculated based on the slope of the dose response curve for individual compounds listed in Table B.
# [4] = tested on: Euphorbia heterophylla L. (poinsettia, wild); details: for pest or weed control at 35 g/ha / pest or weed control at 70 g/ha / pest or weed control at 140 g/ha / pest or weed control at 280 g/ha: Euphorbia heterophylla, 336 h, foliar post-emergent, scored after 14 days, read-out: % Visual Growth Reduction EPHHL; for pest or weed control at 35 g/ha: 35 g ai/ha; for pest or weed control at 70 g/ha: 70 g ai/ha; for pest or weed control at 140 g/ha: 140 g ai/ha; for GR80 Value EPHHL: calculated by probit analysis, dose for 80% visual injury, may be extrapolated; for pest or weed control at 280 g/ha: 280 g ai/ha
# Protocol: as §1, §2, §3
# [5] = tested on: Helianthus annuus L. (sunflower, common); details: for pest or weed control at 35 g/ha / pest or weed control at 70 g/ha / pest or weed control at 140 g/ha / pest or weed control at 280 g/ha: Helianthus annuus, 336 h, foliar post-emergent, scored after 14 days, read-out: % Visual Growth Reduction HELAN; for pest or weed control at 35 g/ha: 35 g ai/ha; for pest or weed control at 70 g/ha: 70 g ai/ha; for pest or weed control at 140 g/ha: 140 g ai/ha; for GR80 Value HELAN: calculated by probit analysis, dose for 80% visual injury, may be extrapolated; for pest or weed control at 280 g/ha: 280 g ai/ha
# Protocol: as §1, §2, §3
# [6] = tested on: Chenopodium album L. (lambsquarters, common); details: for pest or weed control at 35 g/ha / pest or weed control at 70 g/ha / pest or weed control at 140 g/ha / pest or weed control at 280 g/ha: Chenopodium album, 336 h, foliar post-emergent, scored after 14 days, read-out: % Visual Growth Reduction CHEAL; for pest or weed control at 35 g/ha: 35 g ai/ha; for pest or weed control at 70 g/ha: 70 g ai/ha; for pest or weed control at 140 g/ha: 140 g ai/ha; for GR80 Value CHEAL: calculated by probit analysis, dose for 80% visual injury, may be extrapolated; for pest or weed control at 280 g/ha: 280 g ai/ha
# Protocol: as §1, §2, §3
# [7] = tested on: Viola tricolor L. (pansy); details: for pest or weed control at 35 g/ha / pest or weed control at 70 g/ha / pest or weed control at 140 g/ha / pest or weed control at 280 g/ha: Viola tricolor, 336 h, foliar post-emergent, scored after 14 days, read-out: % Visual Growth Reduction VIOTR; for pest or weed control at 35 g/ha: 35 g ai/ha; for pest or weed control at 70 g/ha: 70 g ai/ha; for pest or weed control at 140 g/ha: 140 g ai/ha; for GR80 Value VIOTR: calculated by probit analysis, may be extrapolated; for pest or weed control at 280 g/ha: 280 g ai/ha
# Protocol: as §1, §2, §3
# [8] = tested on: Echinochloa crus-galli (L.) Beauv. (barnyardgrass); details: for pest or weed control at 35 g/ha / pest or weed control at 70 g/ha / pest or weed control at 140 g/ha / pest or weed control at 280 g/ha: Echinochloa crus-galli, 336 h, foliar post-emergent, scored after 14 days, read-out: % Visual Growth Reduction ECHCG; for pest or weed control at 35 g/ha: 35 g ai/ha; for pest or weed control at 70 g/ha: 70 g ai/ha; for pest or weed control at 140 g/ha: 140 g ai/ha; for GR80 Value ECHCG: calculated by probit analysis, may be extrapolated; for pest or weed control at 280 g/ha: 280 g ai/ha
# Protocol: as §1, §2, §3
# [9] = foliar post-emergent, scored after 14 days
# [10] = 140 g ai/ha, foliar post-emergent, scored after 14 days
# [11] = calculated, dose for 80% visual injury, prior art tables
smiles,measurement,setting,value
"COC(=O)c1nc(C(C)F)c(F)c(N)c1Cl (stereo not drawn) [Compound F15, Methyl 4-amino-3-chloro-5-fluoro-6-(1-fluoroethyl)picolinate]",plant injury at 35 g/ha,[1],0%
same,plant injury at 70 g/ha,[1],0%
same,plant injury at 140 g/ha,[1],0%
same,plant injury at 35 g/ha,[2]; 35 g ai/ha,0%
same,plant injury at 70 g/ha,[2],0%
same,plant injury at 140 g/ha,[2],0%
same,pest or weed control at 35 g/ha,[3]; [9],90%
same,pest or weed control at 70 g/ha,[3]; [9],90%
same,pest or weed control at 140 g/ha,[3]; [10],95%
same,GR80 Value AMARE,[3],22.3 g ai/ha
same,pest or weed control at 35 g/ha,[4],55%
same,pest or weed control at 70 g/ha,[4],85%
same,pest or weed control at 140 g/ha,[4],90%
same,GR80 Value EPHHL,[4],75.1 g ai/ha
same,pest or weed control at 35 g/ha,[5],80%
same,pest or weed control at 70 g/ha,[5],90%
same,pest or weed control at 140 g/ha,[5],100%
same,GR80 Value HELAN,[5],24.4 g ai/ha
same,pest or weed control at 35 g/ha,[6],80%
same,pest or weed control at 70 g/ha,[6],85%
same,pest or weed control at 140 g/ha,[6],80%
same,GR80 Value CHEAL,[6],48.6 g ai/ha
same,pest or weed control at 35 g/ha,[7],25%
same,pest or weed control at 70 g/ha,[7],45%
same,pest or weed control at 140 g/ha,[7],55%
same,GR80 Value VIOTR,[7]; dose for 80% visual injury,>140 g ai/ha
same,pest or weed control at 35 g/ha,[8],0%
same,pest or weed control at 70 g/ha,[8],20%
same,pest or weed control at 140 g/ha,[8],30%
same,GR80 Value ECHCG,[8]; dose for 80% visual injury,>140 g ai/ha
"Nc1c(F)c(C(F)F)nc(C(=O)O)c1Cl [Compound F32, 4-Amino-3-chloro-6-(difluoromethyl)-5-fluoropicolinic acid]",plant injury at 140 g/ha,[1],0%
same,plant injury at 280 g/ha,[1],10%
same,plant injury at 140 g/ha,[2],0%
same,plant injury at 280 g/ha,[2],5%
same,pest or weed control at 140 g/ha,[3]; [10],55%
same,pest or weed control at 280 g/ha,[3]; [9],85%
same,GR80 Value AMARE,[3],251 g ai/ha
same,pest or weed control at 140 g/ha,[4],30%
same,pest or weed control at 280 g/ha,[4],50%
same,GR80 Value EPHHL,[4],>280 g ai/ha
same,pest or weed control at 140 g/ha,[5],100%
same,pest or weed control at 280 g/ha,[5],100%
same,GR80 Value HELAN,[5],40.8 g ai/ha
same,pest or weed control at 140 g/ha,[6],90%
same,pest or weed control at 280 g/ha,[6],100%
same,GR80 Value CHEAL,[6],26.9 g ai/ha
same,pest or weed control at 140 g/ha,[7],5%
same,pest or weed control at 280 g/ha,[7],10%
same,GR80 Value VIOTR,[7]; dose for 80% visual injury,>280 g ai/ha
same,pest or weed control at 140 g/ha,[8],55%
same,pest or weed control at 280 g/ha,[8],60%
same,GR80 Value ECHCG,[8]; dose for 80% visual injury,433 g ai/ha
"COC(=O)c1nc(CF)c(F)c(N)c1Cl [Compound F14, Methyl 4-amino-3-chloro-5-fluoro-6-(fluoromethyl)picolinate]",plant injury at 35 g/ha,[1],0%
same,plant injury at 70 g/ha,[1],0%
same,plant injury at 140 g/ha,[1],20%
same,plant injury at 280 g/ha,[1],45%
same,plant injury at 35 g/ha,[2]; 35 g ai/ha,0%
same,plant injury at 70 g/ha,[2],0%
same,plant injury at 140 g/ha,[2],0%
same,plant injury at 280 g/ha,[2],0%
same,pest or weed control at 35 g/ha,[3]; [9],70%
same,pest or weed control at 70 g/ha,[3]; [9],80%
same,pest or weed control at 140 g/ha,[3]; [10],90%
same,pest or weed control at 280 g/ha,[3]; [9],100%
same,GR80 Value AMARE,[3],89.2 g ai/ha
same,pest or weed control at 35 g/ha,[4],10%
same,pest or weed control at 70 g/ha,[4],100%
same,pest or weed control at 140 g/ha,[4],100%
same,pest or weed control at 280 g/ha,[4],100%
same,GR80 Value EPHHL,[4],53.9 g ai/ha
same,pest or weed control at 35 g/ha,[5],85%
same,pest or weed control at 70 g/ha,[5],90%
same,pest or weed control at 140 g/ha,[5],95%
same,pest or weed control at 280 g/ha,[5],95%
same,GR80 Value HELAN,[5],18 g ai/ha
same,pest or weed control at 35 g/ha,[6],85%
same,pest or weed control at 70 g/ha,[6],90%
same,pest or weed control at 140 g/ha,[6],100%
same,pest or weed control at 280 g/ha,[6],100%
same,GR80 Value CHEAL,[6],16.8 g ai/ha
same,pest or weed control at 35 g/ha,[7],0%
same,pest or weed control at 70 g/ha,[7],0%
same,pest or weed control at 140 g/ha,[7],50%
same,pest or weed control at 280 g/ha,[7],60%
same,GR80 Value VIOTR,[7]; dose for 80% visual injury,334 g ai/ha
same,pest or weed control at 35 g/ha,[8],0%
same,pest or weed control at 70 g/ha,[8],0%
same,pest or weed control at 140 g/ha,[8],15%
same,pest or weed control at 280 g/ha,[8],60%
same,GR80 Value ECHCG,[8]; dose for 80% visual injury,411 g ai/ha
"COC(=O)c1nc(C(F)(F)F)cc(N)c1Cl [Prior Art 1, reference compound]",plant injury at 35 g/ha,[1],0%
same,% Visual Growth Reduction ORYSA,[2]; 35 g ai/ha,0%
same,plant injury at 35 g/ha,[2]; 35 g ai/ha,0%
same,% Visual Growth Reduction AMARE,[3]; [10],100%
same,pest or weed control at 70 g/ha,[3]; [9],80%
same,pest or weed control at 140 g/ha,[3]; [10],100%
same,pest or weed control at 35 g/ha,[4],80%
same,pest or weed control at 70 g/ha,[4],85%
same,pest or weed control at 140 g/ha,[4],95%
same,pest or weed control at 35 g/ha,[6],80%
same,pest or weed control at 70 g/ha,[6],85%
same,pest or weed control at 140 g/ha,[6],100%
same,pest or weed control at 140 g/ha,[7],95%
same,GR80 Values VIOTR,[7]; [11],121 g/ha
same,pest or weed control at 35 g/ha,[8],0%
same,pest or weed control at 70 g/ha,[8],0%
same,pest or weed control at 140 g/ha,[8],0%
same,GR80 Values ECHCG,[8]; [11],>140 g/ha

# Source: patent US9603364B2 (Dow AgroSciences LLC, priority 2013, dated 2017)
